# Results taken from PMC8445441, “Elucidating the mechanism by which synthetic helper peptides sensitize Pseudomonas aeruginosa to multiple antibiotics” (PLoS Pathogens, 2021).
# “And” between values parts separate entries of the source, which are not always exact repeats. Identical values can stand only once. Like-named read-outs stand apart in the source and are kept apart here. Positions of bridges follow the written chain, without caps; N, C: chain ends. Non-standard residues stand in square brackets, D forms with d. Residues, ends and D or L forms follow the SMILES beside them. *: point of attachment. Ileψ(thiazoline)Cys = CC[C@H](C)[C@H](N)C1=N[C@H](C(=O)*)CS1; dOrn = NCCC[C@@H](N)C(=O)O
# Key:
# [1] = tested on: clinical P. aeruginosa isolates; test: microbe, parasite or virus in culture; conditions: for MIC: Pseudomonas aeruginosa, 18 h; for Antibiotic sensibility (MIC) of clinical P. aeruginosa isolate AUMC-Pa-1: strain AUMC-Pa-1; for Antibiotic sensibility (MIC) of clinical P. aeruginosa isolate AUMC-Pa-2: strain AUMC-Pa-2; for Antibiotic sensibility (MIC) of clinical P. aeruginosa isolate AUMC-Pa-3: strain AUMC-Pa-3; for Antibiotic sensibility (MIC) of clinical P. aeruginosa isolate AUMC-Pa-4: strain AUMC-Pa-4; for Antibiotic sensibility (MIC) of clinical P. aeruginosa isolate AUMC-Pa-5: strain AUMC-Pa-5; for Antibiotic sensibility (MIC) of clinical P. aeruginosa isolate AUMC-Pa-6: strain AUMC-Pa-6; for Antibiotic sensibility (MIC) of clinical P. aeruginosa isolate HM-214: strain HM-214; for Antibiotic sensibility (MIC) of clinical P. aeruginosa isolate NR-31040: strain NR-31040; for Antibiotic sensibility (MIC) of clinical P. aeruginosa isolate NR-31041: strain NR-31041
# Protocol: The bacterial strains, primers and plasmids used in this study are listed in S5 Table. […] Bacteria were cultured in LB medium or cation-adjusted Muller-Hinton broth (CA-MHB) at 37 °C with agitation at 220 rpm. All the antibiotics and chemical compounds used in this study were purchased from Sigma-Aldrich.
# (§1) The MIC tests were performed in triplicate using broth microdilution in accordance with Clinical and Laboratory Standards Institute (CLSI) recommendations (http://iacld.ir/DL/public/CLSI-2018-M100-S28.pdf). Briefly, drugs were two-fold diluted in MHB and mixed with an equal volume of bacterial suspensions containing approximately 1 × 10^6 CFU/mL in 96-well microliter plate. After 18 h incubation at 37 °C, the MIC values were defined as the lowest concentrations of antibiotics with no visible growth of bacteria. […] Otherwise, 1/4 MIC of the peptide was used in the combination. […] If needed, membrane compounds PG, PE, PC, CL or LPS, or membrane stabilizers MgCl2 or CaCl2, or efflux pumps inhibitor PAβN were added to the broth medium to clarify the effect of other substances on the synergy between peptide and antibiotics. All the tests were performed in triplicate.
# P. aeruginosa PAO1 = test: microbe, parasite or virus in culture; conditions: for MIC: Pseudomonas aeruginosa, PAO1, 18 h
# Protocol: as §1
# The fractional inhibitory concentration (FIC) indices were calculated using the previously described formula FICI = FICa + FICb = MICac/MICa + MICbc/MICb. The FICI was interpreted according to EUCAST [65] as follows: synergistic, FICI≤0.5; additive, 0.5<FICI≤1; indifferent, 1<FICI<2; antagonistic, FICI ≥2. For the FICI calculations, twice the highest concentration tested was used in the cases where the MIC was not reached.
# [2] = read-out: Antibiotic sensibility (MIC) of clinical P. aeruginosa isolate AUMC-Pa-1, strain AUMC-Pa-1, antibiotic alone
# [3] = read-out: Antibiotic sensibility (MIC) of clinical P. aeruginosa isolate AUMC-Pa-2, strain AUMC-Pa-2, antibiotic alone
# [4] = read-out: Antibiotic sensibility (MIC) of clinical P. aeruginosa isolate AUMC-Pa-3, strain AUMC-Pa-3, antibiotic alone
# [5] = read-out: Antibiotic sensibility (MIC) of clinical P. aeruginosa isolate AUMC-Pa-4, strain AUMC-Pa-4, antibiotic alone
# [6] = read-out: Antibiotic sensibility (MIC) of clinical P. aeruginosa isolate AUMC-Pa-5, strain AUMC-Pa-5, antibiotic alone
# [7] = read-out: Antibiotic sensibility (MIC) of clinical P. aeruginosa isolate AUMC-Pa-6, strain AUMC-Pa-6, antibiotic alone
# [8] = read-out: Antibiotic sensibility (MIC) of clinical P. aeruginosa isolate HM-214, strain HM-214, antibiotic alone
# [9] = read-out: Antibiotic sensibility (MIC) of clinical P. aeruginosa isolate NR-31040, strain NR-31040, antibiotic alone
# [10] = read-out: Antibiotic sensibility (MIC) of clinical P. aeruginosa isolate NR-31041, strain NR-31041, antibiotic alone
# [11] = S3 Table, PAO1, antibiotic + 2 μM D-11
# [12] = S3 Table, PAO1, antibiotic + 4 μM D-11
# [13] = S3 Table, antibiotic alone, PAO1
# [14] = read-out: MICa: the MIC of antibiotics, S3 Table, antibiotic alone, PAO1
# [15] = read-out: Antibiotic sensibility (MIC) of clinical P. aeruginosa isolate AUMC-Pa-1
# [16] = read-out: Antibiotic sensibility (MIC) of clinical P. aeruginosa isolate AUMC-Pa-2
# [17] = read-out: Antibiotic sensibility (MIC) of clinical P. aeruginosa isolate AUMC-Pa-3
# [18] = read-out: Antibiotic sensibility (MIC) of clinical P. aeruginosa isolate AUMC-Pa-4
# [19] = read-out: Antibiotic sensibility (MIC) of clinical P. aeruginosa isolate AUMC-Pa-5
# [20] = read-out: Antibiotic sensibility (MIC) of clinical P. aeruginosa isolate AUMC-Pa-6
# [21] = read-out: Antibiotic sensibility (MIC) of clinical P. aeruginosa isolate HM-214
# [22] = read-out: Antibiotic sensibility (MIC) of clinical P. aeruginosa isolate NR-31040
# [23] = read-out: Antibiotic sensibility (MIC) of clinical P. aeruginosa isolate NR-31041
# [24] = read-out: MICa: the MIC of antibiotics
Compound,"MIC [1, 2] [µM]","MIC [1, 3] [µM]","MIC [1, 4] [µM]","MIC [1, 5] [µM]","MIC [1, 6] [µM]","MIC [1, 7] [µM]","MIC [1, 8] [µM]","MIC [1, 9] [µM]","MIC [1, 10] [µM]","MICac: the MIC for the antibiotic in the combination (P. aeruginosa PAO1; S3 Table, PAO1, with 2 μM D-11)","MICac: the MIC for the antibiotic in the combination (P. aeruginosa PAO1; S3 Table, PAO1, with 4 μM D-11)",MICa: the MIC of antibiotics (P. aeruginosa PAO1; [13]),FICI (P. aeruginosa PAO1; [11]),FICI (P. aeruginosa PAO1; [12]),other results
NCC[C@H](O)C(=O)N[C@@H]1C[C@H](N)[C@@H](O[C@H]2O[C@H](CN)[C@@H](O)[C@H](O)[C@H]2O)[C@H](O)[C@H]1O[C@H]1O[C@H](CO)[C@@H](O)[C@H](N)[C@H]1O [Amikacin],1,0.25,0.0625,1,1,2,1,4,2,1/1 μM,2 µM,1/1 μM and 1 μM,1.063,2.125,
"CC1(C)S[C@@H]2[C@H](NC(=O)[C@H](N)c3ccc(O)cc3)C(=O)N2[C@H]1C(=O)O [Amoxicin, Amoxicillin]",> 128,> 128,> 128,> 128,> 128,> 128,> 128,> 128,> 128,>128/>128 μM,>128/>128 μM,,,1.125,MIC (P. aeruginosa PAO1; [14]): > 128 µM
CC1(C)S[C@@H]2[C@H](NC(=O)[C@H](N)c3ccccc3)C(=O)N2[C@H]1C(=O)O [Ampicillin],> 128,> 128,> 128,> 128,> 128,> 128,> 128,> 128,> 128,>128/>128 μM,>128/>128 μM,,,1.125,MIC (P. aeruginosa PAO1; [14]): > 128 µM
CC[C@H](C)[C@H](N)C1=N[C@H](C(=O)N[C@@H](CC(C)C)C(=O)N[C@H](CCC(=O)O)C(=O)N[C@H](C(=O)N[C@H]2CCCCNC(=O)[C@H](CC(N)=O)NC(=O)[C@@H](CC(=O)O)NC(=O)[C@H](Cc3cnc[nH]3)NC(=O)[C@@H](Cc3ccccc3)NC(=O)[C@H]([C@@H](C)CC)NC(=O)[C@@H](CCCN)NC2=O)[C@@H](C)CC)CS1 [Bacitracin] ({Ileψ(thiazoline)Cys}-L[dE]IK[dOrn]I[dF]H[dD]N; lactam 4-C (inferred); N-terminus assumed),,,,,,,,,,>128/>128 μM,>128/>128 μM,>128/>128 μM,1.063,1.125,Antibiotic sensibility (MIC) of clinical P. aeruginosa isolate AUMC-Pa-1 ([1]; antibiotic alone): >128 µM; Antibiotic sensibility (MIC) of clinical P. aeruginosa isolate AUMC-Pa-2 ([1]; antibiotic alone): >128 µM; Antibiotic sensibility (MIC) of clinical P. aeruginosa isolate AUMC-Pa-3 ([1]; antibiotic alone): >128 µM; Antibiotic sensibility (MIC) of clinical P. aeruginosa isolate AUMC-Pa-4 ([1]; antibiotic alone): >128 µM; Antibiotic sensibility (MIC) of clinical P. aeruginosa isolate AUMC-Pa-5 ([1]; antibiotic alone): >128 µM; Antibiotic sensibility (MIC) of clinical P. aeruginosa isolate AUMC-Pa-6 ([1]; antibiotic alone): >128 µM; Antibiotic sensibility (MIC) of clinical P. aeruginosa isolate HM-214 ([1]; antibiotic alone): >128 µM; Antibiotic sensibility (MIC) of clinical P. aeruginosa isolate NR-31040 ([1]; antibiotic alone): >128 µM; Antibiotic sensibility (MIC) of clinical P. aeruginosa isolate NR-31041 ([1]; antibiotic alone): >128 µM
CO/N=C(\C(=O)N[C@@H]1C(=O)N2C(C(=O)[O-])=C(C[N+]3(C)CCCC3)CS[C@H]12)c1csc(N)n1 [Cefepime],8,0.5,2,2,4,4,128,4,16,1 µM,1 µM,2 µM,0.563,0.625,
CCCCc1ccc(C(=O)O)nc1 [Fusaric Acid],,,,,,,,,,>128/>128 μM,>128/>128 μM,,1.063,1.125,"MIC [1, 15]: > 128 µM; MIC [1, 16]: > 128 µM; MIC [1, 17]: > 128 µM; MIC [1, 18]: > 128 µM; MIC [1, 19]: > 128 µM; MIC [1, 20]: > 128 µM; MIC [1, 21]: > 128 µM; MIC [1, 22]: > 128 µM; MIC [1, 23]: > 128 µM; MIC (P. aeruginosa PAO1; [24]): > 128 µM"
CNC(C)C1CCC(N)C(OC2C(N)CC(N)C(OC3OCC(C)(O)C(NC)C3O)C2O)O1 (stereo not drawn) [Gentamicin],0.5,0.25,0.0625,0.5,0.5,2,1,32,32,2 µM,2 µM,1 µM,2.063,2.125,
CN(C)C(=O)C(CCN1CCC(O)(c2ccc(Cl)cc2)CC1)(c1ccccc1)c1ccccc1 [Loperamide],,,,,,,,,,,,,,,"MIC [1, 15]: > 128 µM; MIC [1, 16]: > 128 µM; MIC [1, 17]: > 128 µM; MIC [1, 18]: > 128 µM; MIC [1, 19]: > 128 µM; MIC [1, 20]: > 128 µM; MIC [1, 21]: > 128 µM; MIC [1, 22]: > 128 µM; MIC [1, 23]: > 128 µM; FICI (P. aeruginosa PAO1): 1.063 and 1.125; MICac: the MIC for the antibiotic in the combination (P. aeruginosa PAO1): >128/>128 μM; MIC (P. aeruginosa PAO1; [24]): > 128 µM"

# Further lines, with some results ahead:
"MIC [1, 2] [µM]","MIC [1, 3] [µM]","MIC [1, 4] [µM]","MIC [1, 5] [µM]","MIC [1, 6] [µM]","MIC [1, 7] [µM]","MIC [1, 8] [µM]","MIC [1, 9] [µM]","MIC [1, 10] [µM]","MICac: the MIC for the antibiotic in the combination (P. aeruginosa PAO1; S3 Table, PAO1, with 2 μM D-11)","MICac: the MIC for the antibiotic in the combination (P. aeruginosa PAO1; S3 Table, PAO1, with 4 μM D-11)",MICa: the MIC of antibiotics (P. aeruginosa PAO1; [13]),Compound,FICI (P. aeruginosa PAO1; [11]),FICI (P. aeruginosa PAO1; [12]),other results
,,,,,,,,,128 µM,128 µM,64 µM,NC[C@H]1O[C@H](O[C@H]2[C@H](O)[C@@H](O[C@H]3O[C@H](CO)[C@@H](O)[C@H](N)[C@H]3O)[C@H](N)C[C@@H]2N)[C@H](O)[C@@H](O)[C@@H]1O [Kanamycin],2.063,2.125,Antibiotic sensibility (MIC) of clinical P. aeruginosa isolate AUMC-Pa-1 ([1]; antibiotic alone): 64 µM; Antibiotic sensibility (MIC) of clinical P. aeruginosa isolate AUMC-Pa-2 ([1]; antibiotic alone): 16 µM; Antibiotic sensibility (MIC) of clinical P. aeruginosa isolate AUMC-Pa-3 ([1]; antibiotic alone): 32 µM; Antibiotic sensibility (MIC) of clinical P. aeruginosa isolate AUMC-Pa-4 ([1]; antibiotic alone): 32 µM; Antibiotic sensibility (MIC) of clinical P. aeruginosa isolate AUMC-Pa-5 ([1]; antibiotic alone): 32 µM; Antibiotic sensibility (MIC) of clinical P. aeruginosa isolate AUMC-Pa-6 ([1]; antibiotic alone): 32 µM; Antibiotic sensibility (MIC) of clinical P. aeruginosa isolate HM-214 ([1]; antibiotic alone): 128 µM; Antibiotic sensibility (MIC) of clinical P. aeruginosa isolate NR-31040 ([1]; antibiotic alone): 128 µM; Antibiotic sensibility (MIC) of clinical P. aeruginosa isolate NR-31041 ([1]; antibiotic alone): 128 µM
> 128,> 128,> 128,> 128,> 128,> 128,> 128,> 128,> 128,>128/>128 μM,>128/>128 μM,,CC(=O)NC[C@H]1CN(c2ccc(N3CCOCC3)c(F)c2)C(=O)O1 [Linezolid],1.063,1.125,MIC (P. aeruginosa PAO1; [14]): > 128 µM
16,8,128,8,8,16,128,> 128,> 128,64/64 μM,64/64 μM,64/64 μM,[H]/N=C(/N)N[C@H]1[C@H](O)[C@@H](O)[C@H](O[C@@H]2O[C@@H](C)[C@](O)(C=O)[C@H]2O[C@@H]2O[C@@H](CO)[C@H](O)[C@@H](O)[C@@H]2NC)[C@@H](N/C(N)=N\[H])[C@@H]1O [Streptomycin],1.063,1.125,
